Patent US10941157B2, “Pesticidal compositions and uses thereof” (Gilead Apollo, LLC, priority 2015, dated 2021)
In brackets after ≈: the same amount, converted by molar mass.

Legend:
[1] = test system: Fusarium moniliforme (Fm); assay: In vitro pathogen growth inhibition assay, Fm; format: cell-based; details: Fusarium verticillioides; ≥90% growth inhibition; 48 hours; vs 2% DMSO control; read-out: Compound Concentration (ppm) sufficient for ≥90% inhibition of Fm
Procedure, shortened: (§1)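 Value reported is the compound concentration reaching ≥90% growth inhibition, from OD readings at 24 and 48 h after blank subtraction, confirmed visually. Inoculum was spores diluted in 17% V8 medium, except Rs, using 1.5 mm mycelial plugs in ¼ PDB; actual compound concentration corrected via OD600.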

Pythium ultimum = assay: Seed protectant for soybean seedling disease, P. ultimum; format: in vivo; details: soybean from treated seeds, 0.025 mg/seed, P. ultimum inoculated
Experimental: (§2) The pathogen of Rhizoctonia solani inoculum was grown on sterile sorghum; and the pathogen of Pythium ultimum inoculum was grown on white millet.
(§3) Soybean seeds (Glycine max cv. AG4832) were planted in 2.5-inch square pots containing Berger BM2 germination mix amended with fertilizer (e.g., 14-14-14). Pots with soil were inoculated with the pathogen of R. solani or P. ultimum at time of planting. A hole was pressed into the soil to a depth of about 2 to 3 cm; the inoculum was added to the hole, followed by the seed which was then covered with soil. Two seeds per pot were planted. Plants were grown in a growth chamber at conditions of 20 to 24° C., 14 hour light cycle, 500 uM of light, and 65% humidity. The pots inoculated with P. ultimum were sub-irrigated every day; and the pots inoculated with R. solani were sub-irrigated every other day.
(§4) Seedling emergence was captured at 7 and 14 days after seeding. At 14 days, the top of the plant was removed and fresh weight was recorded. The plant weights from the seeds treated with test compounds (e.g., in formulations) were compared to the ones either from the inoculated non-treated seeds or non-inoculated non-treated seeds. Table 10 lists the results of the R. solani control in soybean upon seed treatment with test compounds, and Table 11 lists the results of the P. ultimum control in soybean upon seed treatment with test compounds, respectively.

Rhizoctonia solani = assay: Seed protectant for soybean seedling disease, R. solani; format: in vivo; details: soybean from treated seeds, 0.025 mg/seed, R. solani inoculated
Experimental: as §2, §3, §4

Sphaerotheca fuliginea = assay: Foliar protection for cucumber powdery mildew control; format: in vivo; details: foliar spray on Cucumis sativus cv. Straight Eight, inoculated 24 hours after treatment, evaluated 7 days later
Procedure, shortened: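 Protective foliar spray on 10-day-old Straight Eight cucumbers, with S. fuliginea spores dusted from infected stock plants 24 h after treatment. Disease developed at 23–27 °C, 60% RH and a 16 h photoperiod. Leaves were rated for mildew growth after 7 days; test rates 10 ppm or below.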

Puccinia triticina = assay: Foliar protection test for wheat leaf rust control; format: in vivo; details: foliar application to wheat (Triticum aestivum cv. Winterhawk), evaluated 10 days later
Phakopsora pachyrhizi = assay: Foliar protection test for Asian soybean rust control; format: in vivo; details: foliar application to soybean (Glycine max AG4832), percent disease area evaluated 14 days later
Septoria tritici (St) = assay: In vitro pathogen growth inhibition assay, St; format: cell-based; details: ≥90% growth inhibition; 48 hours; vs 2% DMSO control
Procedure, shortened: as §1

Rhizoctonia solani (Rs) = assay: In vitro pathogen growth inhibition assay, Rs (mycelial plugs); format: cell-based; details: Rhizoctonia solani, 48 h, ≥90% growth inhibition; mycelial plugs; 48 hours; vs 2% DMSO control; read-out: Compound Concentration (ppm) sufficient for ≥90% inhibition of Rs
Procedure, shortened: (§5)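 Spores in 17% V8 liquid medium, or 1.5 mm Rs mycelial plugs in ¼ PDB, incubated with compound; final concentration checked by OD600 for precipitation. OD readings at 24 and 48 h, blank-subtracted, plus visual ratings; value is concentration giving ≥90% growth inhibition.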

[2] = test system: Mycosphaerella graminicola (synthetic Septoria tritici); assay: Foliar protection test for wheat septoria leaf blotch control; format: in vivo; details: foliar spray on Triticum aestivum cv. WinterHawk, inoculated 1 hour after treatment, evaluated 16 days later
[3] = test system: Fusarium virguliforme (Fv); assay: In vitro pathogen growth inhibition assay, Fv; format: cell-based; details: ≥90% growth inhibition, 48 hours, vs 2% DMSO control, read-out: Compound Concentration (ppm) sufficient for ≥90% inhibition of Fv
Procedure, shortened: as §5

Fusarium graminearum [4] = format: in vivo; details: corn from treated seeds, 0.025 mg/seed, F. graminearum inoculated, Table 12
[5] = test system: Blumeria graminis f. sp. hordei; assay: Early foliar disease control via seed treatment (barley powdery mildew); format: in vivo; details: seed treatment rate 0.025 mg/seed; barley inoculated 7 days after planting, evaluated 7 days later
Experimental: Barley seeds (Hordeum vulgare cv. Perry or Conlon) were treated with a test compound dissolved in pure acetone, in which the acetone solution (1 mL) was used per 50 seeds in glass jars in a fume hood. The seeds were swirled in the glass jars by hand until no obvious presence of acetone remained and the seeds were mostly dry. Plants were grown for 7 days in 2-inch square pots containing Metromix 200 medium amended with fertilizer. […] After inoculation with the pathogen of Blumeria graminis f. sp. hordei, plants were kept at conditions of 20 to 22° C., 200 uM of light, 70% humidity to facilitate infection and disease development. At 7 days after planting (1st true leaf fully expanded), the plants were moved to the cooler chamber and inoculated by shaking well-colonized, untreated stock plants above the treated material. […] Efficacy was evaluated in 7 days later by examining leaves for colonization and growth of powdery mildew. Each side of each leaf was assigned a severity rating of 0, 1, 5, 10, 25, 50, 75, or 100 percent diseased area. Table 14 lists the results of barley powdery mildew control upon seed treatment with test compounds.

Fusarium graminearum [6] = format: in vivo; details: spray on flowering Triticum aestivum cv. Samson, inoculated 24 hours after treatment, evaluated 14 days later
[7] = test system: Blumeria graminis f. sp. hordei; assay: Foliar protection test for barley powdery mildew control; format: in vivo; details: foliar spray on Hordeum vulgare cv. Perry, inoculated 24 hours after treatment, evaluated 7 days later
Procedure, shortened: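 Protective foliar test: compound atomized onto both leaf surfaces of 6-day-old Hordeum vulgare cv. Perry, followed after 24 h by spore-cloud inoculation from colonized untreated plants. Disease rated on leaves 7 days on, plants held at 20 to 22° C and 70% RH.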

[8] = percentage of non-inoculated non-treated controls

For `CCOC(=O)c1sc2c(c1C)c(=O)n(C(C)(C)C(=O)NC(C)C)c(=O)n2C[C@H](OCCC#N)c1cc(F)ccc1OC` [Compound I-181, (R)-ethyl-1-(2-(2-cyanoethoxy)-2-(5-fluoro-2-methoxyphenyl)ethyl)-3-(1-(isopropylamino)-2-methyl-1-oxopropan-2-yl)-5-methyl-2,4-dioxo-1,2,3,4-tetrahydrothieno[2,3-d]pyrimidine-6-carboxylate], the IC90 [1] was 0.08 µg/mL (≈ 0.133 µM), the “Plant Weight” value (Pythium ultimum; fresh weight at 14 days) was 4.73 g and the “Improvement in plant weight” value (Pythium ultimum; [8]) was 76%. For the same compound, the “Plant Weight” value (Rhizoctonia solani; fresh weight at 14 days) was 3.16 g, the “Improvement in plant weight” value (Rhizoctonia solani; [8]) was 39.4% and the “Cucumber Powdery Mildew Control at a compound concentration of 10 ppm or lower” value (Sphaerotheca fuliginea) was “AA (≥85% control of cucumber powdery mildew)”. The “Wheat Leaf Rust Control at a compound concentration of 10 ppm or lower” value (Puccinia triticina) was “AA (≥85% control of wheat leaf rust)”, the “Asian Soybean Rust Control at a compound concentration of 25 ppm or lower” value (Phakopsora pachyrhizi) was “B (from 50 to 69% control of Asian soybean rust)” and the “Compound Concentration (ppm) sufficient for ≥90% inhibition of St” value (Septoria tritici (St)) was ≥10.0 ppm. The IC90 (Rhizoctonia solani (Rs)) was 0.08 µg/mL (≈ 0.133 µM), the “Septoria Leaf Blotch Control at a compound concentration of 25 ppm or lower” value [2] was “B (from 50 to 69% control of wheat septoria leaf blotch)” and the IC90 [3] was 0.4 µg/mL (≈ 0.664 µM). The “Plant Height” value (Fusarium graminearum [4]) was 47.63 cm, the “Barley Powdery Mildew Reduction (%)” value [5] was 57% and the “Wheat Fusarium Head Blight Control at a compound concentration of 25 ppm or lower” value (Fusarium graminearum [6]) was “B (from 50 to 69% control of wheat fusarium head blight)”. For the same compound, the “Barley Powdery Mildew Control at a compound concentration of 10 ppm or lower” value [7] was “AA (≥85% control of barley powdery mildew)”.
